This passage reports inhibition results from patent publication US11225480B2, “Malic enzyme inhibitors” (SUN PHARMA ADVANCED RESEARCH COMPANY LTD, priority 2019, dated 2022).

As usually defined, the inhibition is the percentage by which the read-out fell short of the control.

Where only a bound is given, the exact number is not on record here.

Holding throughout (assay type): biochemical
The target in one assay is human ME2 enzyme (Homo sapiens, UniProt P23368). Briefly: ME2 inhibition assay (diaphorase/resazurin coupled fluorescence). The conditions noted are these: 10 μM compound concentration; read-out: Malic Enzyme 2 % inhibition (10 μM). The procedure: ME2 catalyzes the oxidative decarboxylation of malate to pyruvate with conversion of the co-factor β-NAD+ to β-NADH. In the fluorescence assay, a coupled reaction is set up where in an enzyme, Diaphorase, utilizes NADH generated by ME2, to convert the dye resazurin to a fluorescent molecule resorufin. Resorufin has a characteristic fluorescence with excitation/emission at 540/600 nm (SLAS Discov., 2017 April 1:2472555217706649).
The enzyme activity inhibition assay is set up in a 200 μL final reaction volume in a 96-well plate. As per the experimental design, 2 μL of the compounds at 100× the desired concentration (10 μM) in DMSO were added to the respective wells with 178 μL of assay buffer (50 mM Tris-HCl pH 7.5, 10 mM MnCl2, 7 mM L-malate, 50 μM Resazurin and 0.025 mg/ml Diapharose). The 96-well plate was incubated on a plate shaker at room temperature for 15 minutes protected from light. The well contents were gently mixed by adding 10 μL of 60 nM human ME2 enzyme to the wells and the plate was incubated on a shaker at room temperature for 5 minutes protected from light. Suitable ‘enzyme only’ and ‘no enzyme’ controls were included in the experiment. The enzymatic reaction was started by adding 10 μL of 2 mM β-NAD+. The reaction was gently mixed and the plate was initially left on a shaker at room temperature for −7 minutes protected from light. Later, the plate was incubated without shaking at room temperature for 2 hours. At the end of 2 hours, the fluorescence of the wells was measured at excitation 540 nm and emission 600 nm. The % enzyme activity of the compounds is obtained by normalizing the data with enzyme only (100%) and no enzyme controls (0%) using GraphPad Prism software 7.04.
(Resazurin is reduced to fluorescent resorufin, in cell work by metabolically active cells.)

A further assay addresses T1, human ME3 enzyme (Homo sapiens, UniProt Q16798).
T1 sequence (Q16798 1-604): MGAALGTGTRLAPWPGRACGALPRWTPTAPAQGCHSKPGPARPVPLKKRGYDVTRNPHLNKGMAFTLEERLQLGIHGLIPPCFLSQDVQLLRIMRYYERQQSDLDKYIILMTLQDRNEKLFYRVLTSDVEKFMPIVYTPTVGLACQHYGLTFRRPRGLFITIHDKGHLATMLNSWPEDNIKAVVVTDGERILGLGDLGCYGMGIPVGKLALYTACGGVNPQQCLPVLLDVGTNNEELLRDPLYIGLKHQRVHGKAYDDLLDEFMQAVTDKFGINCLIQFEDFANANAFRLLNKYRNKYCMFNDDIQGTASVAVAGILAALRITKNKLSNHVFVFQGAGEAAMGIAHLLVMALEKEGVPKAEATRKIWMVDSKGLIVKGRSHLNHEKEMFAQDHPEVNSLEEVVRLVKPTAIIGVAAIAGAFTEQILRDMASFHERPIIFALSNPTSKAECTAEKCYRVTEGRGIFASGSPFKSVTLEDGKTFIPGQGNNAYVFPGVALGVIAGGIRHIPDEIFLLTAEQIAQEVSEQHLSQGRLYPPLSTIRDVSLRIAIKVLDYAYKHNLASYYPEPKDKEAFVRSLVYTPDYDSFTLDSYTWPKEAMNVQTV
Briefly: ME3 inhibition assay (diaphorase/resazurin coupled fluorescence). The conditions noted are these: 10 μM compound concentration; read-out: Malic Enzyme 3 % inhibition (10 μM). The procedure: ME3 catalyzes the oxidative decarboxylation of malate to pyruvate with conversion of the co-factor β-NADP+ to NADPH. In the fluorescence assay, a coupled reaction is set up wherein an enzyme, Diaphorase, utilizes NADPH generated by ME3, to convert the dye resazurin to a fluorescent molecule resorufin.
The enzyme activity inhibition assay is set up in a 200 μL final reaction volume in a 96-well plate. As per the experimental design, 2 μL of the test compounds at 100× the desired concentration (10 μM) in DMSO were added to the respective wells with 178 μL of assay buffer (50 mM Tris-HCl pH 7.5, 10 mM MnCl2, 3 mM L-malate, 50 μM Resazurin and 0.025 mg/ml Diapharose). The 96-well plate was incubated on a plate shaker at room temperature for 15 minutes protected from light. The well contents were gently mixed by adding 10 μL of 20 nM human ME3 enzyme to the wells and the plate was incubated on a shaker at room temperature for 5 minutes protected from light. Suitable enzyme only and no enzyme controls were included in the experiment. The enzyme reaction was started by adding 10 μL of 1 mM D-NADP+. The reaction was gently mixed and the plate was initially left on a shaker at room temperature for ˜7 minutes protected from light. Later, the plate was incubated without shaking at room temperature for 3 hours. At the end of 3 hours, the fluorescence of the wells was measured at excitation 540 nm and emission 600 nm.

The target of a further assay is T2, human ME1 enzyme (Homo sapiens, UniProt P48163).
T2 sequence (P48163 1-572): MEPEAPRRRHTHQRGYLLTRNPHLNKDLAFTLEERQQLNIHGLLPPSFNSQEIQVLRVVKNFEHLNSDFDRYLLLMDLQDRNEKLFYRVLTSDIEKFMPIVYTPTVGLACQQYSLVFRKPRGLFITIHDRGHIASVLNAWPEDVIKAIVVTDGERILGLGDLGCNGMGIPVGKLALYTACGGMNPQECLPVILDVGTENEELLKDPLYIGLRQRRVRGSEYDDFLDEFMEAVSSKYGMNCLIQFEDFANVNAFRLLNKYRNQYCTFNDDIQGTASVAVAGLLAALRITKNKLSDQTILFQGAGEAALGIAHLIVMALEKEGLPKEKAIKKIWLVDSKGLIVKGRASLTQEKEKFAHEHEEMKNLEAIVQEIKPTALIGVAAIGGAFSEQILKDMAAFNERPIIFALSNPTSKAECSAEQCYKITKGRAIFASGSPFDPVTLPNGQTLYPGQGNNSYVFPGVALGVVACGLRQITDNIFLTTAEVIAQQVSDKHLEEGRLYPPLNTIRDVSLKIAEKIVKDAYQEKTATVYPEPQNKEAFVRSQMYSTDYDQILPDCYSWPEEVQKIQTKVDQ
Put plainly: ME1 inhibition assay (diaphorase/resazurin coupled fluorescence). The conditions noted are these: 10 μM compound concentration; read-out: Malic Enzyme 1 % inhibition (10 μM). On the procedure: ME1 catalyzes the oxidative decarboxylation of malate to pyruvate with conversion of the co-factor β-NADP+ to β-NADPH. In the fluorescence assay, a coupled reaction is set up where in an enzyme, Diaphorase, utilizes NADPH generated by ME1, to convert the dye resazurin to a fluorescent molecule resorufin. Resorufin has a characteristic fluorescence with excitation/emission at 540/600 nm (SLAS Discov., 2017 April 1:2472555217706649).
The enzyme activity inhibition assay is set up in a 200 μL final reaction volume in a 96-well plate. As per the experimental design, 2 μL of the compounds at 100× the desired concentration (10 μM) in DMSO were added to the respective wells with 178 μL of assay buffer (50 mM Tris-HCl pH 7.5, 10 mM MnCl2, 2 mM L-malate, 10 μM Resazurin and 0.01 mg/ml Diapharose). The 96-well plate was incubated on a plate shaker at room temperature for 15 minutes protected from light. The well contents were gently mixed by adding 10 μL of 20 nM human ME1 enzyme to the wells and the plate was incubated on a shaker at room temperature for 5 minutes protected from light. Suitable ‘enzyme only’ and ‘no enzyme’ controls were included in the experiment. The enzymatic reaction was started by adding 10 μL of 0.3 mM D-NADP+. The reaction was gently mixed and the plate was initially left on a shaker at room temperature for −7 minutes protected from light. Later, the plate was incubated without shaking at room temperature for 2 hours. At the end of 2 hours, the fluorescence of the wells was measured at excitation 540 nm and emission 600 nm. The % enzyme activity of the compounds is obtained by normalizing the data with enzyme only (100%) and no enzyme controls (0%) using GraphPad Prism software 7.04.

Chain of human ME2 enzyme (P23368 19-584): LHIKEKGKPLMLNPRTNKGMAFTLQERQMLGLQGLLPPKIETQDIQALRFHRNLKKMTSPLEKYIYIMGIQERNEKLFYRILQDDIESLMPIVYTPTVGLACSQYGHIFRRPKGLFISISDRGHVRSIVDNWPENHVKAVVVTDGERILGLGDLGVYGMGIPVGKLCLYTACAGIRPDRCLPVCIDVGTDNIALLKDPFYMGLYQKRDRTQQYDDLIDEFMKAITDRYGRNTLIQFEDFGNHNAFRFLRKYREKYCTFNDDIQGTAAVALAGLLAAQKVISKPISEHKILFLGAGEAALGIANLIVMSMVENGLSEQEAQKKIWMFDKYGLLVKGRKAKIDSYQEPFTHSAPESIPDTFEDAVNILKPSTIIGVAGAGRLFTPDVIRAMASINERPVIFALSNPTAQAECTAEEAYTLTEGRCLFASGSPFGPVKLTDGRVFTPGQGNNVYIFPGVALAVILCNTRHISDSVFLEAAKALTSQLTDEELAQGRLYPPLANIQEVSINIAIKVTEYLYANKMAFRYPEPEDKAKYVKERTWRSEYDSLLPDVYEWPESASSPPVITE

On to `O=C([C@@H]1C[C@H]1c1ccccc1)N1CCN(c2ccc(O)cn2)CC1` (stereo in doubt) [I.133, [4-(5-hydroxypyridin-2-yl)-piperazin-1-yl]-((1R,2R)-2-phenylcyclopropyl)-methanone], for which the inhibition at 10 µM at human ME2 enzyme, on human ME3 enzyme and on human ME1 enzyme was more than 90% in each case.
As for `O=C(Cc1ccccc1)N1CCN(c2ccc(O)cc2)CC1` [I.1, 1-[4-(4-hydroxyphenyl)piperazin-1-yl]-2-phenylethanone], the inhibition at 10 µM at human ME2 enzyme, at human ME3 enzyme and at human ME1 enzyme was more than 90% each time.
For `O=C(c1c[nH]c2ccccc12)N1CCN(c2ccc(O)cc2)CC1` [I.2], the inhibition at 10 µM at human ME2 enzyme, at human ME3 enzyme and on human ME1 enzyme was more than 90% throughout.
As for `COc1cc(CC(=O)N2CCN(c3ccc(O)cc3)CC2)cc(OC)c1OC` [I.3, 1-[4-(4-Hydroxy-phenyl)-piperazin-1-yl]-2-(3,4,5-trimethoxy-phenyl)-ethanone], the inhibition at 10 µM on human ME3 enzyme and at human ME1 enzyme was more than 90% in each case.
Consider `O=C(Cc1ccc(O)cc1)N1CCN(c2ccc(O)cc2)CC1` [I.4, 2-(4-Hydroxy-phenyl)-1-[4-(4-hydroxy-phenyl)-piperazin-1-yl]-ethanone], for which the inhibition at 10 µM on human ME3 enzyme and at human ME1 enzyme was more than 90% each time.
`COCCOc1ccc(CC(=O)N2CCN(c3ccc(O)cc3)CC2)cc1` [I.5, 1-[4-(4-Hydroxy-phenyl)-piperazin-1-yl]-2-[4-(2-methoxy-ethoxy)-phenyl]-ethanone]: the inhibition at 10 µM at human ME2 enzyme, on human ME3 enzyme and at human ME1 enzyme was more than 90% each time.
As for `O=C(Cc1ccccc1)N1CCN(c2ccc(O)cn2)CC1` [I.6, 1-[4-(5-Hydroxy-pyridin-2-yl)-piperazin-1-yl]-2-phenyl-ethanone], the inhibition at 10 µM on human ME2 enzyme, on human ME3 enzyme and at human ME1 enzyme was more than 90% in each case.
Turning to `O=C(c1c2ccccc2nc2ccccc12)N1CCN(c2ccc(O)cc2)CC1` [I.9, Acridin-9-yl-[4-(4-hydroxy-phenyl)-piperazin-1-yl]-methanone], the inhibition at 10 µM on human ME2 enzyme, on human ME3 enzyme and on human ME1 enzyme was more than 90% each time.
Regarding `O=C(Cc1ccccc1)N1CCN(c2ccc(O)cc2F)CC1` [I.11, 1-[4-(2-Fluoro-4-hydroxy-phenyl)-piperazin-1-yl]-2-phenyl-ethanone], the inhibition at 10 µM at human ME2 enzyme was 70 to 89%; at human ME3 enzyme, more than 90%; on human ME1 enzyme, more than 90%.
As for `O=C(Cc1ccc(C(F)(F)F)cc1)N1CCN(c2ccc(O)cc2)CC1` [I.28, 1-[4-(4-Hydroxy-phenyl)-piperazin-1-yl]-2-(4-trifluoro-methyl-phenyl)-ethanone], the inhibition at 10 µM on human ME3 enzyme and on human ME1 enzyme was more than 90% in each case.
For the molecule `O=C(O)c1ccccc1C(=O)N1CCN(c2ccc(O)cn2)CC1` [I.111, 2-[4-(5-Hydroxy-pyridin-2-yl)-piperazine-1-carbonyl]-benzoic acid], at human ME3 enzyme, the inhibition at 10 µM is more than 90%.
The same measure, in the same setting: the result for `O=C(CCC(c1ccccc1)c1ccccc1)N1CCN(c2ccc(O)cn2)CC1` [I.112, 1-[4-(5-Hydroxy-2-pyridyl)-piperazin-1-yl]-4,4-diphenyl-butan-1-one] reads more than 90%; that for `O=C(c1cccc(-c2cccc3[nH]ccc23)c1)N1CCN(c2ccc(O)cn2)CC1` [I.113, [4-(5-hydroxypyridin-2-yl)-piperazin-1-yl]-[3-(1H-indol-4-yl)phenyl]methanone], more than 90%; that for `COCCOc1ccc(CCC(=O)N2CCN(c3ccc(O)cn3)CC2)cc1` [I.114, 1-[4-(5-Hydroxy-pyridin-2-yl)-piperazin-1-yl]-3-[4-(2-methoxy-ethoxy)-phenyl]-propan-1-one dihydro-chloride], more than 90%.
The same measure, in the same setting: as for `O=C(C(c1ccccc1)N1CCOCC1)N1CCN(c2ccc(O)cn2)CC1` (centres unmarked) [I.117, 1-[4-(5-hydroxy-2-pyridyl)piperazin-1-yl]-2-morpholino-2-phenyl-ethanone], the figure is more than 90%; as for `O=C(C1CCCCC1)N1CCN(c2ccc(O)cn2)CC1` [I.118, Cyclohexyl-[4-(5-hydroxy-2-pyridyl)-piperazin-1-yl]methanone], more than 90%.
The same measure, in the same setting: the result for `O=C(C1CC1)N1CCN(c2ccc(O)cn2)CC1` [I.119, Cyclopropyl-[4-(5-hydroxy-2-pyridyl)-piperazin-1-yl]methanone] reads more than 90%; that for `O=C(/C=C/C1CCCCC1)N1CCN(c2ccc(O)cn2)CC1` [I.120, (E)-3-Cyclo-hexyl-1-[4-(5-hydroxy-2-pyridyl)-piperazin-1-yl]prop-2-en-1-one], more than 90%.
